Test results as given in patent US10590422B2, “Anticancer therapeutic intervention” (PHYZAT BIOPHARMACEUTICALS, LDA., priority 2017, dated 2020).

Tested on: LAT1
Experiment: LAT1 activity: [^14C]-L-leucine uptake in fibrosarcoma HT-1080 cells after LAT1 gene silencing
Type: cell-based, human
Settings: 5 nM siRNA, treatment 6 h, at 48 h, 0.4% Lipofectamine 2000, FIG. 8A
Protocol: Cells were plated in 24-well plates (Sarstedt, Germany) and grown until confluence was reached. On the day of the experiment, cell culture medium was aspirated and cells were preincubated for 15 min in Hanks' medium (NaCl 140 mM, KCl 5 mM, MgSO4.7H2O 0.8 mM, K2HPO4 0.33 mM, KH2PO4 0.44 mM, MgCl2.6H2O 1 mM, CaCl2) 0.025 mM, Tris-HCl 9.75 mM, pH 7.4). Uptake was initiated by addition of Hanks' medium with 0.25 μM [^14C]-L-leucine in the absence and in the presence of 3 mM unlabeled L-leucine. During preincubation and incubation cells were continuously shaken and maintained at 37° C. Uptake was terminated after 1 min by rapid removal of uptake solution by means of a vacuum pump connected to a Pasteur pipette, followed by a rapid wash with Hanks' medium. Subsequently, cells were solubilized in 0.1% vol/vol Triton X-100 (dissolved in 5 mM Tris-HCl, pH 7.4), and radioactivity was measured by liquid scintillation counting.
Cells were plated in 24-well (Sarstedt, Germany) or 6-well plates (Sarstedt, Germany) or 96-well plates with black walls clear bottom (BD Biosciences, USA) and incubated 24 h under normal growth conditions. siRNAs against LAT1 and transfection agent were diluted at desired concentrations and mixed according to transfection agent manufacturer's instructions. The mixture was incubated 20 min at RT for siRNA-complex formation, after which it was added to the cells and incubated at 37° C., 5% CO2. After the incubation period, serum and antibiotic was restored and cells were further incubated at normal conditions for the desired time points until evaluation of LAT1 activity or LAT1 expression (immunoblotting and RT-qPCR).

## 58/387/388 (sense CUUCGCCACCUACCUGCUCAATT; antisense UUGAGCAGGUAGGUGGCGAAGTT; siRNA; sugars by position and backbone not given here; further chemistry not fully specified)
  [^14C]-L-leucine (0.25 μM) uptake at initial rate of uptake (1 min): decreased
